The source of these data is paper PMC3510508, “Rbg1–Tma46 dimer structure reveals new functional domains and their role in polysome recruitment” (Nucleic Acids Research, 2012).

For data set [1], the target named is human Drg1 full length (human) (UniProt Q9Y295).
Data set [2] addresses T1, Rbg1fl–Tma46_205–345 (Saccharomyces cerevisiae, UniProt P39729).
T1 construct: gene RBG1; 6His-tagged full-length Rbg1 (N-terminal tag) co-expressed in E. coli with Tma46 residues 205-345; heterodimer; with Translation machinery-associated protein 46
T1 sequence (P39729 1-369): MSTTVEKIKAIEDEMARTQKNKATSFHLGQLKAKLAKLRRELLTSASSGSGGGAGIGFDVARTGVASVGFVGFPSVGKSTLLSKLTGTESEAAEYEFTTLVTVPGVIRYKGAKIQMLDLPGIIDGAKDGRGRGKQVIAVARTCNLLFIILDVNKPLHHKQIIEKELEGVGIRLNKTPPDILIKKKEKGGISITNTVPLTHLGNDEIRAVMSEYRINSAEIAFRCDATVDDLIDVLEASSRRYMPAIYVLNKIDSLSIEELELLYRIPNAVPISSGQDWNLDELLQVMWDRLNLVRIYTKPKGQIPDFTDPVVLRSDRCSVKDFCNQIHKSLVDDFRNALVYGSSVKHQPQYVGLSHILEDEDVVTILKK
T1 sequence (Q12000 205-345 partner): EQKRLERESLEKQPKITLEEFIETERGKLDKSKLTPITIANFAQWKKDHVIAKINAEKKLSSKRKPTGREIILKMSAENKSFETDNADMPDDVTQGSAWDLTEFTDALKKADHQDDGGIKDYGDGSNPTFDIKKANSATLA
Briefly: thermal shift assay (Sypro Orange). Type of data set: binding. The note with it: 150 mM NaCl, 20 mM Tris pH 7.5, 2 mM DTT, ~0.05 mM protein.

The next data set concerns the target T2, Drg1fl–Lerepo4_220–396 (Homo sapiens, UniProt Q9Y295).
T2 construct: gene DRG1; recombinant full-length Drg1 with C-terminal Lerepo4 fragment; with Zinc finger CCCH domain-containing protein 15
T2 sequence (Q9Y295 2-367): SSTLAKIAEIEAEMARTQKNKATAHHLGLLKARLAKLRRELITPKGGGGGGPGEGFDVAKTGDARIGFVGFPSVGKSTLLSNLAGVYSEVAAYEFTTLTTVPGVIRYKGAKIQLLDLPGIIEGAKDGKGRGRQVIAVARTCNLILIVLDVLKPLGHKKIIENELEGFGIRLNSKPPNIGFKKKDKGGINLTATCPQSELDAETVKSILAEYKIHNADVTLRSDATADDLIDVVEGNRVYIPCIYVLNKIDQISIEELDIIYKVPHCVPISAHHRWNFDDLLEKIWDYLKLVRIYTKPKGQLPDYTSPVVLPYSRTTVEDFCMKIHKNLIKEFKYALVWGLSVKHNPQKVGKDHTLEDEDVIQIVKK
T2 sequence (Q8WU90 220-396 partner): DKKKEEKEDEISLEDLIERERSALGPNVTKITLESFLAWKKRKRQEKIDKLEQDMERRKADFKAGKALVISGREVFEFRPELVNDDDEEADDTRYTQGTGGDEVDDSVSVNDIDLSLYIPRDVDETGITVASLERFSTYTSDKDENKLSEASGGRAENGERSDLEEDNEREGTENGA
Briefly: malachite green phosphate release. The format is biochemical. To be noted: 100 mM KCl, 50 mM Tris pH 7.5, 5 mM MgCl2, 37°C, 1 h, 20 μM protein. From the text: malachite green phosphate release on Drg1fl–Lerepo4_220–396

The target of data set [3] is T3, Rbg1fl–Tma46_205–345 (Saccharomyces cerevisiae, UniProt P39729).
T3 construct: gene RBG1; 6His-tagged full-length Rbg1 (N-terminal tag) co-expressed in E. coli with Tma46 residues 205-345; heterodimer; with Translation machinery-associated protein 46
T3 sequence (P39729 1-369): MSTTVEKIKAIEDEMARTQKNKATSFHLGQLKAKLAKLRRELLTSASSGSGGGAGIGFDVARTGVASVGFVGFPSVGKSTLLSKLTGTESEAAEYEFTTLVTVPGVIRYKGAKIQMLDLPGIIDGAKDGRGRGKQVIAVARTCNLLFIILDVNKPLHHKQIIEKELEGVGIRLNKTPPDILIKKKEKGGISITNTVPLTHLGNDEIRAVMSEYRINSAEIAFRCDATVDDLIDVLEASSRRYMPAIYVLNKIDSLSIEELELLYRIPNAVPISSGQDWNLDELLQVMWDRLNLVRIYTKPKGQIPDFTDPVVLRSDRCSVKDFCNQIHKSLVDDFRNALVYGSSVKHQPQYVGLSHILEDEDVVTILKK
T3 sequence (Q12000 205-345 I241A/F246A partner): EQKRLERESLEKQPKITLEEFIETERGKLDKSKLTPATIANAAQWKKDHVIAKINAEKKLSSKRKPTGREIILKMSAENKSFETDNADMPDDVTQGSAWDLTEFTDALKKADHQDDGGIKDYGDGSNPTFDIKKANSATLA
Briefly: malachite green phosphate release. To be noted: 100 mM KCl, 50 mM Tris pH 7.5, 5 mM MgCl2, 37°C, 1 h, 20 μM protein. Type of data set: biochemical. The source says: (§1) malachite green phosphate release on Rbg1fl–Tma46_205–345

The target in data set [4] is T4, Rbg1fl–Tma46_205–345 (Saccharomyces cerevisiae, UniProt P39729).
T4 construct: gene RBG1; 6His-tagged full-length Rbg1 (N-terminal tag) co-expressed in E. coli with Tma46 residues 205-345; heterodimer; with Translation machinery-associated protein 46
T4 sequence (P39729 1-369): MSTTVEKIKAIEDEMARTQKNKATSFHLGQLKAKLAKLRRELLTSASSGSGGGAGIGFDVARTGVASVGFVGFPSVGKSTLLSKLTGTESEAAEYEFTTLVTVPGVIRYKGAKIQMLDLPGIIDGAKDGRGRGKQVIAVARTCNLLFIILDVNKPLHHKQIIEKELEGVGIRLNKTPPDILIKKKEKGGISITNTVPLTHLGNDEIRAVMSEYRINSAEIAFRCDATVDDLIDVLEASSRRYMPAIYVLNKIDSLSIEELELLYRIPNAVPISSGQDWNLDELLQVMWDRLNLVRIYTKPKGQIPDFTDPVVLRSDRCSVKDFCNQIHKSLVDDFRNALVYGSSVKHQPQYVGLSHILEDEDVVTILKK
T4 sequence (Q12000 205-345 I241A partner): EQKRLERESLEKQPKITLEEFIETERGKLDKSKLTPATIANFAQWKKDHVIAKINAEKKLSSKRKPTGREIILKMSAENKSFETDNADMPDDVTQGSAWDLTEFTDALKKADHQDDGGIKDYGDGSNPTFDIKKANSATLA
Briefly: malachite green phosphate release. The note with it: 100 mM KCl, 50 mM Tris pH 7.5, 5 mM MgCl2, 37°C, 1 h, 20 μM protein. Type of data set: biochemical.
Text: as §1
The source holds these as a separate data set.

The target in data set [5] is T5, Rbg1fl–Tma46_205–345 (Saccharomyces cerevisiae, UniProt P39729).
T5 construct: gene RBG1; 6His-tagged full-length Rbg1 (N-terminal tag) co-expressed in E. coli with Tma46 residues 205-345; heterodimer; with Translation machinery-associated protein 46
T5 sequence (P39729 1-369): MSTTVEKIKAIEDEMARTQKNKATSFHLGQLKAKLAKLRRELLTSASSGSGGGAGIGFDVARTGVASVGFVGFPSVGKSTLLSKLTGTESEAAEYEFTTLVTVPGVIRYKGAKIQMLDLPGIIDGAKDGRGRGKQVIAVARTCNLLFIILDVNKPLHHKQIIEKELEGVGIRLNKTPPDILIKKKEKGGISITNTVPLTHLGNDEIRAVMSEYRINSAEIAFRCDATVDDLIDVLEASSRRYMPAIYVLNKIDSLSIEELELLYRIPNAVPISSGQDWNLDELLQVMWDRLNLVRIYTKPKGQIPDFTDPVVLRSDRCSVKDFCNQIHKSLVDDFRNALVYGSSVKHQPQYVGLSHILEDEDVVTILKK
T5 sequence (Q12000 205-345 W249A/K250E partner): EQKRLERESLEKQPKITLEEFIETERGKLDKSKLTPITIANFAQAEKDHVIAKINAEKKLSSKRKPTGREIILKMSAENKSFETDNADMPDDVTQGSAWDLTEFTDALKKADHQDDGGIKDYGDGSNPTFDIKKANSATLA
Briefly: malachite green phosphate release. Type of data set: biochemical. The note with it: 100 mM KCl, 50 mM Tris pH 7.5, 5 mM MgCl2, 37°C, 1 h, 20 μM protein.
Text: as §1
The source holds these as a separate data set.

Substrate in data set [6]: Nc1nc2c(ncn2[C@@H]2O[C@H](COP(=O)(O)OP(=O)(O)OP(=O)(O)O)[C@@H](O)[C@H]2O)c(=O)[nH]1
Kind of data set: malachite green phosphate release. Type of data set: biochemical, Saccharomyces cerevisiae. To be noted: 100 mM KCl, 50 mM Tris pH 7.5, 5 mM MgCl2, 37°C, 1 h, 20 μM protein.
Text: as §1

“Lerepo4_(220–396) (from UniProt Q8WU90 220-396) (domain or fragment)”: in data set [1], the GTP hydrolysis (Malachite green), Vmax of the complex; free Drg1 showed significantly reduced activity (nmol min^−1 mg^−1) was found to be 0.115 and the GTP hydrolysis (Malachite green), kcat of the complex was 0.000123 s⁻¹.

For `Nc1nc2c(ncn2[C@@H]2O[C@H](COP(=O)(O)OP(=O)(O)O)[C@@H](O)[C@H]2O)c(=O)[nH]1` [GDP], the “increase in melting temperature” value on Rbg1fl–Tma46_205–345 [2] (0.2 mM GDP) is reported as “increased melting temperature in the presence of the GDP, GTP or non-hydrolysable GTPγS”.

On to `Nc1nc2c(ncn2[C@@H]2O[C@H](COP(=O)(O)OP(=O)(O)OP(=O)(O)O)[C@@H](O)[C@H]2O)c(=O)[nH]1` [GTP], for which the Km at Drg1fl–Lerepo4_220–396 came out at 319 ± 35 µM; on Rbg1fl–Tma46_205–345 [3] it was 429 ± 94.7 µM; at Rbg1fl–Tma46_205–345 [4], 186 ± 34.5 µM; on Rbg1fl–Tma46_205–345 [5] it was 426 ± 52.6 µM. For the same molecule, on Rbg1fl–Tma46_205–345 [2] (0.2 mM GTP), the “increase in melting temperature” value is listed as “increased melting temperature in the presence of the GDP, GTP or non-hydrolysable GTPγS”.

Take `Nc1nc2c(ncn2[C@@H]2O[C@H](COP(=O)(O)OP(=O)(O)OP(O)(O)=S)[C@@H](O)[C@H]2O)c(=O)[nH]1` [GTPγS]: at Rbg1fl–Tma46_205–345 [2] (0.5 mM GTPγS in methods (0.2 mM also stated in Figure 4 legend)), the “increase in melting temperature” value is given as “increased melting temperature in the presence of the GDP, GTP or non-hydrolysable GTPγS”.

B1: Rbg1fl–Tma46_205–345 (Saccharomyces cerevisiae S288C) (protein)
chain: MSTTVEKIKAIEDEMARTQKNKATSFHLGQLKAKLAKLRRELLTSASSGSGGGAGIGFDVARTGVASVGFVGFPSVGKSTLLSKLTGTESEAAEYEFTTLVTVPGVIRYKGAKIQMLDLPGIIDGAKDGRGRGKQVIAVARTCNLLFIILDVNKPLHHKQIIEKELEGVGIRLNKTPPDILIKKKEKGGISITNTVPLTHLGNDEIRAVMSEYRINSAEIAFRCDATVDDLIDVLEASSRRYMPAIYVLNKIDSLSIEELELLYRIPNAVPISSGQDWNLDELLQVMWDRLNLVRIYTKPKGQIPDFTDPVVLRSDRCSVKDFCNQIHKSLVDDFRNALVYGSSVKHQPQYVGLSHILEDEDVVTILKK
notes: 6His-tagged full-length Rbg1 (N-terminal tag) co-expressed in E. coli with Tma46 residues 205-345; heterodimer; with Translation machinery-associated protein 46
For B1, in data set [6], the Km was found to be 304.1 ± 32.5 µM, the Vmax is 5.93e-05 µmol/min/mg and the kcat is 5.67e-05 s⁻¹.
